Tested on: human PBMC
Assay: Human PBMC IL-12 p40 secretion, ELISA
Type: cell-based
Outline: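 Healthy-donor PBMC plated at 3×10^5 cells/well and stimulated 16 h (overnight) with RNA oligonucleotides (e.g. 50 μg/ml, or 10, 3 or 1 μg per 200 μl well), with or without DOTAP (10 μg/well). Secreted IL-12 p40 measured in supernatants by sandwich ELISA.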

CCOCc1nc2c(N)nc3ccccc3c2n1CC(C)(C)O [R-848, 4-amino-α,α-dimethyl-2-ethoxymethyl-1H-imidazo[4,5-c]quinoline-1-ethanol, reference compound]
IL-12 p40 response of human PBMC (in words) (Example 1, FIG. 1, 16 hours, RNA 50 μg/ml with and without DOTAP, R-848 2 μg/ml, LPS 1 μg/ml, Pam3Cys 5 μg/ml, poly IC 50 μg/ml): responsive
effect of DOTAP on the amount of IL-12 p40 secreted (Example 4, FIG. 5, presence versus absence of DOTAP, 16 hour incubation): about the same immunostimultory effect
